We go through three molecules from paper PMC9822434, “Estradiol-Based Salicylaldehyde (Thio)Semicarbazones and Their Copper Complexes with Anticancer, Antibacterial and Antioxidant Activities” (Molecules, 2022).

Series [1] in a line: cyclic voltammetry of Cu(II)-(T)SC (1:1) systems. It is filed as physicochemical. To be noted: 90% (v/v) DMSO/H2O, pH 7.40 (10 mM HEPES), 10 mV/s, 25 °C, I = 0.1 M (nBu4NPF6). On the procedure: Cyclic voltammograms of TSCs derivatives and their Cu(II) complexes at 25.0 ± 0.1 °C were recorded. nBu4NPF6 was used as a supporting electrolyte, and measurements were performed at pH 7.4. The complexes were obtained by mixing the ligand dissolved in DMSO with aqueous solution of CuCl2 in 1:1 ratio. The final concentration of stock was 1 mM. Measurements were performed on a conventional three-electrode system under argon atmosphere using an Autolab PGSTAT 204 potentiostat/galvanostat monitored with Metrohm’s Nova software. Samples were purged for 10 min with argon before recording the cyclic voltammograms. Platinum electrode was used as the working and auxiliary electrode and Ag/AgCl/3 M KCl as the reference electrode. The electrochemical system was calibrated with an aqueous solution of K3[Fe(CN)6] (E1/2 = +0.458 V vs. NHE). Redox potentials were obtained at 10 mV/s scan rate in the range of −1.3 to +0.8 V.

Series [2] can be described thus: direct redox reaction of the Cu(II) complexes with GSH (UV–vis, anaerobic). To be noted: Cu(II) complex (25 µM) of the named ligand with GSH (1.25 mM), pH 7.4, anaerobic, 30% (v/v) DMSO/H2O, 25.0 °C. Format: physicochemical. As to the method: (§1) The redox reaction of the Cu(II) complexes with GSH and ascorbic acid was studied at 25.0 ± 0.1 °C, at pH 7.40 (10 mM HEPES with 0.1 M KCl) on an Agilent Cary 8454 diode array spectrophotometer using a special, tightly closed tandem cuvette (Hellma Tandem Cell, 238-QS). The complex and the reducing agent were separated until the reaction was triggered. Both isolated pockets of the tandem cuvette were completely deoxygenated by bubbling argon for 10 min before mixing the reactants. Spectra were recorded before and then immediately after the mixing, and changes were followed till no further absorbance change was observed. The stock solutions of the reducing agents and the complexes were freshly prepared every day.
During the calculations, the absorbance (A)−time (t) curves were fitted and analyzed at the λmax of the complex. (A0 − Afinal) × e ^(−a×t) + Afinal equation was used where A0, Afinal and a parameters were refined and accepted at the minimal value of the weighted sum of squared residuals (difference between the measured and calculated absorbance values) at the given wavelength. Then observed rate constants (kobs) of the redox reaction were obtained from the data points of the simulated absorbance–time curves as the slope of the ln(A/A0) versus t plots.

Series [3] in a line: direct redox reaction of the Cu(II) complexes with ascorbic acid (UV–vis, anaerobic). It is filed as physicochemical. To be noted: Cu(II) complex 25 µM, 50 equiv. ascorbic acid, pH 7.4, 30% (v/v) DMSO/H2O. As to the method:
as §1

The subject of another series is S. aureus ATCC 25928. The series is described as follows: MIC determination. It is filed as cell-based, Staphylococcus aureus. To be noted: Gram-positive S. aureus ATCC 25928; Mueller Hinton Broth. On the procedure: (§2) Klebsiella pneumoniae (ATCC 49619), Escherichia coli (ATCC 25922), Staphylococcus aureus (ATCC 25928) and Enterococcus faecalis (ATCC 29212) strains were used as Gram-negative and Gram-positive bacterial cultures. The stock solutions of the tested compounds (dissolved in 90% (v/v) DMSO/H2O at 10 mM concentration) were diluted in 100 μL of Mueller Hinton Broth, and then two-fold serial dilutions were performed. As a starting point, 100 μM concentration of the compounds was used. Then, 10^−4 dilution of an overnight bacterial culture in 100 μL of medium was added to each well, with the exception of the medium control wells. Minimum inhibitory concentration (MIC) values of compounds were determined according to our previous work.

Another series concerns MCF-7 KCR. Description: MTT cytotoxicity assay. It is filed as cell-based, human. To be noted: for IC50: 24 h incubation time. As to the method: (§3) To test the biological effects of the Cu(II) complexes and the ligands on human cancer cells, DU-145 prostate, A549 lung, and MCF-7 breast adenocarcinoma cells, as well as the multidrug-resistant MCF-7 KCR breast cancer cells were utilized. All the cell lines were maintained in RPMI-1640 media (Biosera, Nuaille, France) complemented with 10% fetal bovine serum (FBS), 2 mM L-glutamine, 0.01% streptomycin and 0.005% penicillin, (Biosera, Nuaille, France) and were cultured under standard conditions in a 37 °C incubator at 5% CO2 and 95% humidity. The cell lines were originally obtained from ATCC.
(§4) The effect of the complexes and of their ligands alone on the viability (on the metabolic activity) of human cancer cells was assessed by MTT assay. The tested compounds were dissolved in 90% (v/v) DMSO/H2O at 10 mM concentration. Equimolar solutions of the ligand CuCl2 salt were used for the cytotoxicity assays. The metal salts without ligands were also tested. For this, 1 × 10^4 cells/well were seeded into 96-well plates and left to grow overnight. On the following day, cells were exposed to increasing concentrations of each compound (0; 2.5; 5; 10; 15; 20 µM). After a 24 h incubation, cells were washed with PBS buffer and then incubated with 0.5 mg/mL MTT (Sigma-Aldrich, St Louis, Missouri, MO, USA) for 1 h at 37 °C. The formazan crystals were solubilized in DMSO (Molar Chemicals, Halásztelek, Hungary), and the absorbance of samples was determined at 570 nm using a Synergy HTX plate reader (BioTek, Winooski, Vermont, VT, USA). Absorption corresponding to the untreated control samples was considered as 100%.

The subject of another series is A549. Description: MTT cytotoxicity assay. Format: cell-based, human. To be noted: for IC50: 24 h incubation time. On the procedure:
as §3, §4

The subject of a further series is DU-145. Description: MTT cytotoxicity assay. It is filed as cell-based, human. To be noted: DU-145, MTT; for IC50: 24 h incubation time. As to the method:
as §3, §4

The subject of another series is MCF-7. Description: MTT cytotoxicity assay. It is filed as cell-based, human. To be noted: MCF-7, MTT; for IC50: 24 h incubation time. On the procedure:
as §3, §4

Series [4] is described as follows: DPPH free radical scavenging assay. To be noted: for % Scavenging Effect: DPPH:compound = 1:1 ratio after 30 min, ethanol; for IC50: in ethanol, T = 25 °C, cDPPH = 50 µM, ccompound = 5−50 µM. As to the method: The DPPH (Sigma-Aldrich) free radical scavenging capacity was studied at 25.0 ± 0.1 °C on an Agilent Cary 3500 spectrophotometer with tightly closed tandem cuvette according to our approach with some modifications. The stock solution of DPPH (100 µM) was prepared in ethanol, and 0.5 mL of this solution was added to one pocket of the cuvette and 0.5 mL of the tested compound in different concentrations in ethanol was added to another. The final concentration of the studied compounds was in the range 5–50 µM, where for DPPH concentration, it was always 50 µM. A standard compound Trolox (Sigma-Aldrich) was used as a positive control. The percentage of the antioxidant activity (AA), IC50 values (the concentration of compound at which it reduced 50% of DPPH) and Trolox equivalent antioxidant capacity (TEAC) were calculated.

In the next series the test system is E. faecalis ATCC 29212. Description: MIC determination. It is filed as cell-based, Enterococcus faecalis. To be noted: Gram-positive E. faecalis ATCC 29212; Mueller Hinton Broth. As to the method:
as §2

The test system of series [5] is A549, MCF-7, MCF-7 KCR and DU-145 cells. Description: γH2AX immunostaining (DNA double-strand breaks). It is filed as cell-based, human. To be noted: 20 µM, 3 h. As to the method: In order to determine the degree of DNA damage induced by the treatments, DNA double-strand breaks were visualized by γH2AX immunostaining. For this, 1 × 10^5 cells/well were seeded onto coverslips in 24-well plates. […] Then, cells were fixed with 4% formaldehyde (Molar Chemicals, Halásztelek, Hungary), permeabilized with 0.3% Triton-X-100 (Calbiochem, Merck Millipore, Darmstadt, Germany) and were blocked using 5% bovine serum albumin (BSA) (Sigma-Aldrich, St. Louis, MO, USA). Then, the samples were incubated with anti-γH2AX antibody (Thermo Fisher Scientific, Waltham, MA, USA) in 1:300 dilution followed by Alexa 488 fluorophore-conjugated goat anti-mouse secondary antibody (Abcam, Cambridge, UK) in 1:600 dilution. The fluorescence intensity of the stained samples was detected by an Olympus FV10i confocal microscope.

The next series concerns DU-145 cells. Description: DCFDA staining (intracellular ROS). Format: cell-based, human. To be noted: DU-145, 20 µM, 6 h. As to the method: (§5) DCFDA staining assay was performed to measure the total intracellular ROS level upon treatments. For this, 1 × 10^5 cells/well were seeded onto coverslips (VWR International, Radnor, Pennsylvania, PA, USA) placed in 24-well plates and left to grow. […] After treatments, cells were washed with PBS then incubated for 1 h with 10 μM DCFDA solution. The fluorescence intensity of the samples was assessed by an OLYMPUS BX51 microscope with Olympus DP70 camera and was quantified using ImageJ software.

The test system of another series is A549 cells. Description: DCFDA staining (intracellular ROS). Format: cell-based, human. To be noted: A549, 20 µM, 6 h. On the procedure:
as §5

The test system of the next series is MCF-7 KCR cells. Description: DCFDA staining (intracellular ROS). To be noted: 20 µM, 6 h. It is filed as cell-based, human. On the procedure: as §5
For series [6] the following is noted: Cu(II) complex (25 µM) with GSH (1.25 mM), pH 7.4, anaerobic; cited from earlier work.
The format of series [7] is physicochemical. To be noted: cligand = 20 µM. On the procedure: An Orion 710A pH-meter equipped with a Metrohm combined electrode (type 6.0234.100) and a Metrohm 665 Dosimat burette were used for the UV–vis titrations at 25.0 ± 0.1 °C. Ionic strength of 0.10 M (KCl) was used to keep the activity coefficients constant. The titrations were performed with carbonate-free KOH solution of known concentration (0.10 M) with 30% (v/v) DMSO content. […] The average water ionization constant (pKw) is 14.54 ± 0.05 in the 30% (v/v) DMSO/H2O mixture. Argon was always passed over the solutions during the titrations. An Agilent Cary 8454 diode array spectrophotometer was used to record the UV–vis spectra at an interval of 200–800 nm. The path length was 2 cm. Spectrophotometric titrations were performed using a 0.1 M KOH titrant solution with 30% (v/v) DMSO on samples with 30% (v/v) DMSO containing HCl, KCl and the ligand at 20 μM concentration in the pH range 2.0–12.5 in the absence or in the presence of 1 or 0.5 equiv. Cu(II) ions. Proton dissociation constants (Ka) of the TSC ligands, the overall stability constants (β) of the Cu(II) complexes and the UV–vis spectra of the individual species were calculated by the computer program PSEQUAD [41] as was done in our previous works.

The conditions of series [8]: cited from earlier work.
[9] abbreviates: 30% (v/v) DMSO/H2O, T = 25.0 °C, I = 0.1 M (KCl).

The structures appear in SMILES notation. Read-outs that look alike come from different tables or passages of the source.

Take `C[C@]12CC[C@@H]3c4cc(/C=N/N=C(N)[O-])c([O-])cc4CC[C@H]3[C@@H]1CC[C@@H]2O.O.[Cu+2]` [Cu(II)-estradiol-SC]: the “formal potential E’ vs. Ag/AgCl/3M KCl” value in series [1] is “+0.10 V”. The kobs entry in series [2] is recorded as “rapid reduction of Cu(II)”. The “reduction by ascorbic acid (in words)” value in series [3] was “remarkable spectral changes”. Further, the MIC against S. aureus ATCC 25928 is 50 µM; in the series with E. faecalis ATCC 29212 it was over 100 µM. Moreover, the IC50 with MCF-7 KCR was over 20 µM; with A549, over 20 µM; in the series on DU-145, over 20 µM; in the series on MCF-7 it was over 20 µM; in series [4], over 50 µM. Further, the “effect on cell viability (in words)” value with MCF-7 KCR (up to 20 µM, 24 h) is recorded as “only slightly toxic”; with A549 (up to 20 µM, 24 h), “only slightly toxic”; in the series with DU-145 (up to 20 µM, 24 h) it was “neither the estradiol-SC nor the Cu(II)-estradiol-SC complex exhibit any harmful effect”; in the series on MCF-7 (up to 20 µM, 24 h), “neither the estradiol-SC nor the Cu(II)-estradiol-SC complex exhibit any harmful effect”. Moreover, the “% Scavenging Effect” value in series [4] (25 °C) was determined as 8.5%.
Consider `C[C@]12CC[C@@H]3c4cc(/C=N/N=C(N)[S-])c([O-])cc4CC[C@H]3[C@@H]1CC[C@@H]2O.O.[Cu+2]` [Cu(II)-estradiol-TSC], for which the “DNA double-strand breaks (γH2AX) vs untreated control cells” value in series [5] is “None of these treatments caused a higher degree of DNA damage”. In addition, the “formal potential E’ vs. Ag/AgCl/3M KCl” value in series [1] was “+0.31 V”. The “intracellular amount of ROS vs DMSO control” value in the series with DU-145 cells, with A549 cells and with MCF-7 KCR cells was “significantly increased” each time. Further, the values for the MIC with S. aureus ATCC 25928 and with E. faecalis ATCC 29212 were 3.125 µM and 12.5 µM, respectively. In addition, the IC50 is 13 ± 1.09 µM with MCF-7 KCR; 10 ± 1.04 µM in the series with A549; over 20 µM in the series with DU-145; 8.4 ± 1.11 µM in the series on MCF-7; 15.7 µM in series [4]. Besides, the “TEAC (Trolox equivalent antioxidant capacity)” value in series [4] (DPPH assay in ethanol, 25 °C) came out at 0.8. Moreover, the “% Scavenging Effect” value in [4] (25 °C) came out at 90.8%.
Regarding `CC12CCC3c4cc(C=NNC(N)=O)c(O)cc4CCC3C1CCC2=O` (centres unmarked) [estrone-SC], the kobs entry in series [6] is “fast reaction ^1”. The pCu5.0 in series [7] (calculated at pH 5.0, cCu(II) = 20 µM) is recorded as 5.8. In addition, the pCu6.0 in series [7] (estimated at pH 6.0, cCu(II) = 20 µM) was 6.3. Besides, in series [8] (setting [9]), the “logβ [CuLH−1]” value was 4.82 ^1 and the “logβ [CuL]+” value is given as 11.26 ^1. Also, the pCu7.4 in series [8] (pH 7.4, cCu(II) = 20 µM, cligand = 20 µM) is recorded as 7.5 ^1.
